According to patent US9631002B2, “Methods and compositions for producing active vitamin K-dependent proteins” (The University of North Carolina at Chapel Hill, priority 2010, dated 2017):
Where a chain is given by its changes, count along the chain named. Names and notes keep the numbering of the source. Like-named read-outs stand apart in the source and are kept apart here.

Assays:
[1] = test system: FIXgla-PC carboxylation in AV12 cells
[2] = test system: FIXgla-PC carboxylation in HEK 293 cells; format: cell-based, human; conditions: for inhibition of FIXgla-PC carboxylation by 2 μM warfarin: 5 μM KO as substrate
[3] = test system: carboxylation of FIXgla-PC reporter protein in AV12 cells (reduction of vitamin K to KH2); test: Cell-based VKOR activity assay in FIXgla-PC/AV12 or FIXgla-PC/VKOR-Y139F/AV12 cells, carboxylated reporter by ELISA; parameters: species or system Syrian golden hamster
[4] = literature refs 18, 25; cited from earlier work
[5] = Activity of warfarin-resistant Y139F human VKOR relative to wild-type human VKOR
[6] = test system: carboxylation of FIXgla-PC reporter protein in HEK293 cells (reduction of KO to vitamin K); test: Cell-based VKOR activity assay: recombinant VKOR/VKORH expressed in FIXgla-PC/HEK293 cells with KO and warfarin, carboxylated reporter by ELISA; parameters: species or system human; conditions: for carboxylation of reporter protein by human VKOR cysteine mutants: Y139F background, 4 μM warfarin, HEK293 (FIG. 13); for activity in the in vivo assay: cysteine mutants of VKOR-Y139F
[7] = previous in vitro results; cited from earlier work

## O=c1oc2ccccc2c(O)c1Cc1c(O)c2ccccc2oc1=O [dicoumarol]
[1]; vitamin K present, AV12
  inhibition of reporter protein carboxylation by dicoumarol: completely inhibited
[2]; 20 μM dicoumarol, HEK293, vitamin K
  reporter protein carboxylated: 60%
[2]; KO as vitamin K source, HEK293
  inhibition of reporter protein carboxylation by dicoumarol: significantly inhibited
[2]; cells fed vitamin K, HEK293
  inhibition of reporter protein carboxylation by dicoumarol: only minimal inhibition
[2]; vitamin K as substrate, dicoumarol
  decrease of carboxylation of the reporter protein: ~20%

## CC1=C(C/C=C(\C)CCC[C@H](C)CCC[C@H](C)CCCC(C)C)C(=O)c2ccccc2C1=O [vitamin K, Vitamin K1]
[1]; AV12 cells
  vitamin K concentration at which maximum carboxylation of FIXgla-PC occurs: 2.5 µM
[2]; 11 μM vitamin K or 5 μM KO, HEK293
  increase in secretion of carboxylated reporter protein compared to no additions: approximately 25 fold
[2]; absence of warfarin, HEK293, 48 h
  vitamin K concentration at which carboxylation occurred maximally: 1 µM
[2]; presence of 2 μM warfarin, HEK293, 48 h
  vitamin K concentration at which maximal carboxylation was detected: 22 µM

## CC(=O)CC(c1ccccc1)c1c(O)c2ccccc2oc1=O (stereo not shown) [warfarin]
[1]; AV12 stably over expressing VKOR-Y139F, 5 μM KO, 2 μM warfarin
  effect of warfarin on reporter protein carboxylation: abolished reporter protein carboxylation
[1]; vitamin K as substrate, AV12
  inhibition of production of carboxylated reporter protein by warfarin: significantly inhibited
[1]; vitamin K as substrate, warfarin, AV12 (FIG. 4A)
  residual activity: ~20%
[2]; 1 μM vitamin K, 2 μM warfarin, HEK293
  carboxylated reporter protein detected in the medium in the presence of warfarin: less than 20%
[2]; 4 μM warfarin, HEK293
  carboxylation of reporter protein by endogenous VKOR at 4 μM warfarin: completely abolished
[2]; 2 μM warfarin, HEK293
  inhibition of FIXgla-PC carboxylation by 2 μM warfarin: completely inhibited
[2]; 2 μM warfarin, HEK293, listed as Warfarin
  inhibition of FIXgla-PC carboxylation by 2 μM warfarin: eliminated KO-supported carboxylation
[2]; 11 μM vitamin K as substrate, HEK293
  levels of carboxylated protein in the presence of warfarin, cells fed vitamin K: unaffected
[2]; Homo sapiens, KO (5 μM) as substrate, 48 h, HEK293, read-out: warfarin concentration giving 50% inhibition of FIXgla-PC carboxylation
  IC50: 100 nM

B1: VKOR-Y139F: human VKOR rendered warfarin resistant by Y139F mutation; control (protein, UniProt Q9BQB6 1-163, looked up, variant Y139F)
Vitamin K epoxide reductase …: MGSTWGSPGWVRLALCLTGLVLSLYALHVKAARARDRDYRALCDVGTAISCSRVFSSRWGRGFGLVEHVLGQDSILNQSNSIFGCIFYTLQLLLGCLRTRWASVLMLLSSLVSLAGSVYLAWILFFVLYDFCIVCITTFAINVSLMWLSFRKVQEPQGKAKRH
[3]; stable expression in AV12, 5 μM KO, no warfarin (FIG. 7B)
  increase of reporter protein carboxylation by over-expression: approximately two-fold
[3]; transient expression in FIXgla-PC/AV12, 5 μM KO, 2 μM warfarin (FIG. 7A)
  carboxylated reporter protein secreted: no carboxylated reporter protein was secreted
[3]; transient expression in FIXgla-PC/AV12 not stably expressing VKOR-Y139F, KO and warfarin (FIG. 19B)
  support of reporter protein carboxylation: did not support carboxylation of the reporter protein
[4]
  fraction of wild-type activity: ~40%
[5]
  reduction in the activity of human VKOR caused by the Y139F mutation: approximately 50%
[5]; Y139F human VKOR
  fraction of wild-type VKOR activity observed: About 50%
[6]
  carboxylation of reporter protein by human VKOR cysteine mutants: restored
[6]; transient expression, 5 μM KO, 2 μM warfarin, HEK293, control empty vector
  increase of carboxylated reporter protein compared to the control: ~20 fold

B2: C43A: warfarin resistant human VKOR (Y139F) with C43 mutated to alanine (protein, UniProt Q9BQB6 1-163, looked up, variant C43A)
Vitamin K epoxide reductase …: B1 Vitamin K epoxide reductase … with C43A, F139Y
[6]
  carboxylation of reporter protein by human VKOR cysteine mutants: dramatically decreased activity
[6]; 5 μM KO, 4 μM warfarin (FIGS. 17A-B)
  activity in the in vivo assay: ~5%
[7]
  activity in the in vitro assay: ~30%

B3: C16A: warfarin resistant human VKOR (Y139F) with C16 mutated to alanine (protein, UniProt Q9BQB6 1-163, looked up, variant C16A)
Vitamin K epoxide reductase …: B1 Vitamin K epoxide reductase … with C16A, F139Y
[6]; 5 μM KO, 4 μM warfarin (FIG. 17A)
  activity in the in vivo assay: no effect on activity
[7]
  activity in the in vitro assay: ~40%
